From patent US10414763B2 (CANCER RESEARCH TECHNOLOGY LIMITED, priority 2014, dated 2019) come the findings set out here.

SMILES strings stand for the structures.

For this assay, the target named is T1, full-length human PKCι (Homo sapiens, UniProt P41743).
T1 construct: Recombinant, full-length human PKCι expressed in Sf21 insect cells is also commercially available; purchased EMD Millipore; host or cells: Sf21 insect cells (baculovirus)
T1 sequence (P41743 1-596): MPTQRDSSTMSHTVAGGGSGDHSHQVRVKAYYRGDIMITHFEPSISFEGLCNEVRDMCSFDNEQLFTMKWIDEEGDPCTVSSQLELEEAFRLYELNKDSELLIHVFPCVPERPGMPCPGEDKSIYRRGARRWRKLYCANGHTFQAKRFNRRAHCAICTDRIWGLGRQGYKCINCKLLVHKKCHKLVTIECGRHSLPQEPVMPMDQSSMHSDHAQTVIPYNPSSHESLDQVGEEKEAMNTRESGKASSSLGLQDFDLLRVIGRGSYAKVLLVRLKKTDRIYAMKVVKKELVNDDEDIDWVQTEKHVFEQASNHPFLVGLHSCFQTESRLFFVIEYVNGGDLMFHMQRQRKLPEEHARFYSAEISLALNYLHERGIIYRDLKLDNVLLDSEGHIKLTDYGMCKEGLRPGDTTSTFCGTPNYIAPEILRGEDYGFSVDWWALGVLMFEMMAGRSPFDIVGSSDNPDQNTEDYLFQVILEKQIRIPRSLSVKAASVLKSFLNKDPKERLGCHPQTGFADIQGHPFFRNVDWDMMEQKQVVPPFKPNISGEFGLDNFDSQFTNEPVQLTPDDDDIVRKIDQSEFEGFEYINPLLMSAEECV
The assay can be described thus: PKCι IC50 IMAP fluorescence polarisation assay, full-length enzyme, 150 μM ATP. It counts as biochemical. The following applies: read-out: IC50 in IMAP assay against full length PKCi at 150 μM ATP. A digest of the protocol: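 IMAP fluorescence polarisation kinase assay: 15 pM baculovirus-expressed human PKCiota with 100 nM FAM-pseudosubstrate peptide and 150 μM ATP, 1 h at 25 °C. IMAP detection reagent then 2 h at 25 °C before FP measurement. Inhibition referenced to no-compound and no-enzyme controls for IC50 fitting.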
On the technique in general: Polarisation of emitted light reports the rotation of a fluorescent probe.

As to `CN(c1nc(-c2ccnc3[nH]c(C(=O)NC4CCCCC4)cc23)nc2cncc(C3CC3)c12)C1CCNCC1(C)C` (stereo not shown) [Example 66, 4-{5-Cyclopropyl-4-[(3,3-dimethyl-piperidin-4-yl)-methyl-amino]-pyrido[3,4-d]pyrimidin-2-yl}-1H-pyrrolo[2,3-b]pyridine-2-carboxylic acid cyclohexylamide], the IC50 is < 100 nM.

For `C[C@@H]1CNCC[C@@H]1Nc1nc(-c2ccnc3[nH]c(C(F)(F)F)cc23)nc2cncc(C3CCC3)c12` (racemic) [Example 263], the IC50 is < 100 nM.

Turning to `CC1(C)CNCC[C@@H]1Nc1nc(-c2ccnc3[nH]c(-c4ccncc4)cc23)nc2cncc(C3CC3)c12` [Example 371, 5-Cyclopropyl-N-[(4S)-3,3-dimethyl-4-piperidyl]-2-[2-(4-pyridyl)-1H-pyrrolo[2,3-b]pyridin-4-yl]pyrido[3,4-d]pyrimidin-4-amine], the IC50 is < 100 nM. Under `CC1(C)CNCC[C@@H]1Nc1nc(-c2ccnc3[nH]c(C(=O)N4CCCCCC4)cc23)nc2cncc(C3CC3)c12` [Example 363, Azepan-1-yl-{4-[5-cyclopropyl-4-((S)-3,3-dimethyl-piperidin-4-ylamino)-pyrido[3,4-d]pyrimidin-2-yl]-1H-pyrrolo[2,3-b]pyridin-2-yl}-methanone] stands < 100 nM; under `C[C@@H]1CNCC[C@@H]1Nc1nc(-c2ccnc(Nc3ncc(F)cc3F)c2)nc2cncc(C3CCC3)c12` (racemic) [Example 283, {5-Cyclobutyl-2-[2-(3,5-difluoro-pyridin-2-ylamino)-pyridin-4-yl]-pyrido[3,4-d]pyrimidin-4-yl}-(rac-(3R,4S)-3-methyl-piperidin-4-yl)-amine], < 100 nM.

`O[C@H]1CNC[C@@H]1Nc1nc(-c2ccnc(Nc3nc(F)ccc3F)c2)nc2cncc(C3CCC3)c12` (racemic) [Example 285, rac-(3S,4S)-4-{5-Cyclobutyl-2-[2-(3,6-difluoro-pyridin-2-ylamino)-pyridin-4-yl]-pyrido[3,4-d]pyrimidin-4-ylamino}-pyrrolidin-3-ol]: the IC50 was < 100 nM. Under `c1cc(-c2nc(N3CCNCC3)c3c(C4CCC4)cncc3n2)cc(Nc2nc(C3CC3)cs2)n1` [Example 38, [4-(5-Cyclobutyl-4-piperazin-1-yl-pyrido[3,4-d]pyrimidin-2-yl)-pyridin-2-yl]-(4-cyclopropyl-thiazol-2-yl)-amine] stands < 100 nM.

For the compound `Cc1nc(Nc2cc(-c3nc(N[C@@H]4CCNC[C@H]4O)c4c(C5CCC5)cncc4n3)ccn2)ccc1C#N` (racemic) [Example 314, 6-{4-[5-Cyclobutyl-4-(rac-(3R,4R)-3-hydroxy-piperidin-4-ylamino)-pyrido[3,4-d]pyrimidin-2-yl]-pyridin-2-ylamino}-2-methyl-nicotinonitrile], the IC50 was < 100 nM. Consider `CN(c1nc(-c2ccnc(Nc3ncn(-c4ccccc4)n3)c2)nc2cncc(C3CC3)c12)C1CCNCC1(C)C` (racemic) [Example 234, rac-{5-Cyclopropyl-2-[2-(1-phenyl-1H-1,2,4-triazol-3-ylamino)-pyridin-4-yl]-pyrido[3,4-d]pyrimidin-4-yl}-(3,3-dimethyl-piperidin-4-yl)-methyl-amine], for which the concentration for half-maximal inhibition (IC50) is < 100 nM.

On to `CC1(C)CNCC[C@@H]1Nc1nc(-c2ccnc(Nc3ccc4cccc(F)c4n3)c2)nc2cncc(C3CCC3)c12` [Example 318, {5-Cyclobutyl-2-[2-(8-fluoro-quinolin-2-ylamino)-pyridin-4-yl]-pyrido[3,4-d]pyrimidin-4-yl}-((S)-3,3-dimethyl-piperidin-4-yl)-amine], for which the IC50 is < 100 nM. Under `CN(c1nc(-c2ccnc3[nH]c(-c4ccccc4F)cc23)nc2cncc(C3CC3)c12)[C@H]1CCNCC1(C)C` [Example 396, {5-Cyclopropyl-2-[2-(2-fluoro-phenyl)-1H-pyrrolo[2,3-b]pyridin-4-yl]-pyrido[3,4-d]pyrimidin-4-yl}-((S)-3,3-dimethyl-piperidin-4-yl)-methyl-amine] stands < 100 nM; under `CC(C)c1cc(C(C)C)c(S(=O)(=O)Oc2nc(-c3ccnc4[nH]c5ccccc5c34)nc3cncc(C4CCC4)c23)c(C(C)C)c1` [Example 204, 2,4,6-Triisopropyl-benzenesulfonic acid 5-cyclobutyl-2-(9H-pyrido[2,3-b]indol-4-yl)-pyrido[3,4-d]pyrimidin-4-yl ester], < 100 nM; under `CC1(C)CNCCC1Nc1nc(-c2ccnc(Nc3ccccc3)c2)nc2cncc(C3CC3)c12` (stereo not shown) [Example 47, [5-Cyclopropyl-2-(2-phenylamino-pyridin-4-yl)-pyrido[3,4-d]pyrimidin-4-yl]-(3,3-dimethyl-piperidin-4-yl)-amine], < 100 nM. Under `Fc1ccc(F)c(Nc2cc(-c3nc(N4CCC5NCCC54)c4c(C5CCC5)cncc4n3)ccn2)n1` (stereo not shown) [Example 97, {4-[5-Cyclobutyl-4-(hexahydro-pyrrolo [3,2-b]pyrrol-1-yl)-pyrido[3,4-d]pyrimidin-2-yl]-pyridin-2-yl}-(3,6-difluoro-pyridin-2-yl)-amine] stands < 100 nM; under `O[C@H]1CNCC[C@H]1Nc1nc(-c2ccnc3[nH]c4ccccc4c23)nc2cncc(C3CCC3)c12` (racemic) [Example 344, rac-(3S,4R)-4-[5-Cyclobutyl-2-(9H-pyrido[2,3-b]indol-4-yl)-pyrido[3,4-d]pyrimidin-4-ylamino]-piperidin-3-ol], < 100 nM. Under `Clc1ccccc1-c1cc2c(-c3nc(N4CCC5NCCC54)c4c(C5CC5)cncc4n3)ccnc2[nH]1` (stereo not shown) [Example 128, 2-[2-(2-Chloro-phenyl)-1H-pyrrolo[2,3-b]pyridin-4-yl]-5-cyclopropyl-4-(hexahydro-pyrrolo[3,2-b]pyrrol-1-yl)-pyrido[3,4-d]pyrimidine] stands < 100 nM; under `N[C@H]1C[C@H](Nc2nc(-c3ccnc4[nH]c5ccccc5c34)nc3cncc(C4CCC4)c23)C[C@H]1F` (racemic) [Example 207, (±)-(1S,3S,4S)-N*l*-[5-Cyclobutyl-2-(9H-pyrido[2,3-b]indol-4-yl)-pyrido[3,4-d]pyrimidin-4-yl]-4-fluoro-cyclopentane-1,3-diamine], 100 to 1000 nM; under `O[C@H]1CNCC[C@H]1Nc1nc(-c2ccnc(Nc3nc(F)ccc3F)c2)nc2cncc(C3CCC3)c12` (racemic) [Example 381, rac-(3S,4R)-4-{5-Cyclobutyl-2-[2-(3,6-difluoro-pyridin-2-ylamino)-pyridin-4-yl]-pyrido[3,4-d]pyrimidin-4-ylamino}-piperidin-3-ol], < 100 nM.

As to `Cc1cc2c(-c3nc(N4CC[C@H]5NCCC[C@H]54)c4c(C5CCC5)cncc4n3)ccnc2[nH]1` (racemic) [Example 85, (±)-5-Cyclobutyl-2-(2-methyl-1H-pyrrolo[2,3-b]pyridin-4-yl)-4-(3,7-cis)-octahydro-pyrrolo [3,2-b]pyridin-1-yl-pyrido[3,4-d]pyrimidine], the IC50 was < 100 nM. Under `c1ccn2nc(Nc3cc(-c4nc(N5CCC6CNCCC65)c5c(C6CC6)cncc5n4)ccn3)nc2c1` (stereo not shown) [Example 152, {4-[5-Cyclopropyl-4-(octahydro-pyrrolo[3,2-c]pyridin-1-yl)-pyrido [3,4-d]pyrimidin-2-yl]-pyridin-2-yl}-[1,2,4]triazolo[1,5-a] pyridin-2-yl-amine] stands 1000 to 10000 nM; under `Cn1c(Nc2cc(-c3nc(N[C@H]4CCNCC4(C)C)c4c(C5CCC5)cncc4n3)ccn2)nc2ccccc21` [Example 281], < 100 nM. Under `C[C@@H]1CNCC[C@H]1Nc1nc(-c2ccnc(Nc3ncccc3F)c2)nc2cncc(C3CCC3)c12` (racemic) [Example 289, {5-Cyclobutyl-2-[2-(3-fluoro-pyridin-2-ylamino)-pyridin-4-yl]-pyrido[3,4-d]pyrimidin-4-yl}-(rac-(3R,4R)-3-methyl-piperidin-4-yl)-amine] stands < 100 nM; under `FC(F)(F)c1cc2c(-c3nc(N4CC[C@@H]5CNC[C@@H]54)c4c(C5CC5)cncc4n3)ccnc2[nH]1` [Example 21, 5-Cyclopropyl-4-(3aR,6aR)-hexahydro-pyrrolo[3,4-b]pyrrol-1-yl-2-(2-trifluoromethyl-1H-pyrrolo[2,3-b]pyridin-4-yl)-pyrido[3,4-d]pyrimidine], < 100 nM. As for `CC1(C)CNCC[C@@H]1Nc1nc(-c2ccnc(Nc3ncc(C#N)cc3F)c2)nc2cncc(C3CCC3)c12` [Example 320, 6-{4-[5-Cyclobutyl-4-((S)-3,3-dimethyl-piperidin-4-ylamino)-pyrido[3,4-d]pyrimidin-2-yl]-pyridin-2-ylamino}-5-fluoro-nicotinonitrile], the IC50 is < 100 nM. Under `CC1(C)CNCCC1Nc1nc(-c2ccnc(Nc3ccc(F)cn3)c2)nc2cncc(C3CCC3)c12` (stereo not shown) [Example 67, {5-Cyclobutyl-2-[2-(5-fluoro-pyridin-2-ylamino)-pyridin-4-yl]-pyrido[3,4-d]pyrimidin-4-yl}-(3,3-dimethyl-piperidin-4-yl)-amine] stands < 100 nM.

Usually IC50 stands for the concentration at which inhibition is half-maximal.
